Reference: US11465990B2, “Heterocyclic antiestrogens” (SUN PHARMA ADVANCED RESEARCH COMPANY LIMITED, priority 2015, dated 2022)

Test system: MCF-7 cells
Experiment: MCF-7 cell growth inhibition assay
Assay type: cell-based
Details: Homo sapiens, MCF7, 120 h, MCF-7 cells plated in presence of estradiol (1 nM), five days incubation, Presto Blue viability
Protocol: MCF-7 Cell Growth Inhibition Assay
MCF-7 cells were plated in 96 well plate in the presence of estradiol (1 nM) and incubated overnight. After 24 hours test compound was added at various concentrations and incubated for five days. On the fifth day, cell viability was evaluated using Presto Blue Cell Viability Reagent. Percentage growth inhibition was calculated as follows: 100−[(O.D. of sample)*100/O.D. of vehicle control] wherein O.D. is optical density.

Compound | inhibition at 1 µM
CNC/C=C\c1ccc(C2Oc3ccc(O)cc3C(C)=C2c2cccc(O)c2)cc1 (stereo not shown) [Compound 1] | 64.1%
CC1=C(c2cccc(O)c2)C(c2ccc(/C=C\CN(C)C)cc2)Oc2ccc(O)cc21 (stereo not shown) [Compound 2] | 62.2%
CCCCCCCCCCCCNC/C=C\c1ccc(C2Oc3ccc(O)cc3C(C)=C2c2cccc(O)c2)cc1 (stereo not shown) [Compound 3] | 68.5%
CCCCCCCCCCCCNC/C=C/c1ccc(C2Oc3ccc(O)cc3C(C)=C2c2cccc(O)c2)cc1 (stereo not shown) [Compound 4] | 56.2%
CC1=C(c2cccc(O)c2)C(c2ccc(/C=C\CNCCN(C)C)cc2)Oc2ccc(O)cc21 (stereo not shown) [Compound 6] | 55.5%
CC1=C(c2cccc(O)c2)C(c2ccc(/C=C\CNCCCCCCCCCSCCCC(F)(F)C(F)(F)F)cc2)Oc2ccc(O)cc21 (stereo not shown) [Compound 7, 3-(3-hydroxyphenyl)-4-methyl-2-(4-{(Z)-3-[9-(4,4,5,5,5-pentafluoropentylsulfanyl)nonylamino]propenyl}phenyl)-2H-chromen-6-ol] | 85.3%
CC1=C(c2cccc(O)c2)C(c2ccc(/C=C/CNCCCCCCCCCSCCCC(F)(F)C(F)(F)F)cc2)Oc2ccc(O)cc21 (stereo not shown) [Compound 8] | 59.1%
CC1=C(c2cccc(O)c2)C(c2ccc(/C=C\CN3CC[C@@H](C)C3)cc2)Oc2ccc(O)cc21 (stereo partly shown) [Compound 9] | 79.8%
CC1=C(c2cccc(O)c2)C(c2ccc(/C=C/CN3CC[C@@H](C)C3)cc2)Oc2ccc(O)cc21 (stereo partly shown) [Compound 10] | 52.3%
CC1=C(c2cccc(O)c2)C(c2ccc(/C=C\CN3CCCCC3)cc2)Oc2ccc(O)cc21 (stereo not shown) [Compound 11, 3-(3-hydroxyphenyl)-4-methyl-2-[4-((Z)-3-piperidin-1-ylpropenyl)phenyl]-2H-chromen-6-ol] | 65.1%
CC1=C(c2cccc(O)c2)C(c2ccc(/C=C/CN3CCCCC3)cc2)Oc2ccc(O)cc21 (stereo not shown) [Compound 12, 3-(3-hydroxyphenyl)-4-methyl-2-[4-((E)-3-piperidin-1-ylpropenyl)phenyl]-2H-chromen-6-ol] | 57.6%
CC1=C(c2cccc(O)c2)C(c2ccc(/C=C\CN3CCOCC3)cc2)Oc2ccc(O)cc21 (stereo not shown) [Compound 13] | 5.5%
CC1=C(c2cccc(O)c2)C(c2ccc(/C=C\CN3CCN(C)CC3)cc2)Oc2ccc(O)cc21 (stereo not shown) [Compound 14] | 79.1%
CC1=C(c2cccc(O)c2)C(c2ccc(/C=C/CN3CCN(C)CC3)cc2)Oc2ccc(O)cc21 (stereo not shown) [Compound 15] | 52.2%
CC1=C(c2cccc(O)c2)C(c2ccc(/C=C\CN3CCC[C@@H](N)C3)cc2)Oc2ccc(O)cc21 (stereo partly shown) [Compound 16] | 56.7%
CC1=C(c2cccc(O)c2)C(c2ccc(/C=C\CN3CCN(CCO)CC3)cc2)Oc2ccc(O)cc21 (stereo not shown) [Compound 17] | 43.4%
CC1=C(c2cccc(OC(=O)C(C)(C)C)c2)C(c2ccc(/C=C\CN3CC[C@@H](C)C3)cc2)Oc2ccc(OC(=O)C(C)(C)C)cc21 (stereo partly drawn) [Compound 19, 2,2-Dimethylpropionic Acid 3-[3-(2,2-dimethylpropionyloxy)phenyl]-4-methyl-2-{4-[(Z)-3-((R)-3-methylpyrrolidin-1-yl)propenyl]phenyl}-2H-chromen-6-yl ester] | 29.4%
COc1cccc(C2=C(C)c3cc(OC)ccc3OC2c2ccc(/C=C\CN3CC[C@@H](C)C3)cc2)c1 (stereo partly drawn) [Compound 20, (R)-1-((Z)-3-{4-[6-methoxy-3-(3-methoxyphenyl)-4-methyl-2H-chromen-2-yl]phenyl}allyl)-3-methylpyrrolidine] | 15.4%
CNCC#Cc1ccc(C2Oc3ccc(O)cc3C(C)=C2c2cccc(O)c2)cc1 (stereo not shown) [Compound 21] | 60.1%

Compound | inhibition at 1 µM
CCCCCCCCCCCCNCC#Cc1ccc(C2Oc3ccc(O)cc3C(C)=C2c2cccc(O)c2)cc1 (stereo not shown) [Compound 22] | 29%
CNC/C(C)=C/CCC=C(C)C [Compound 23] | 36.8%
CC1=C(c2cccc(O)c2)C(c2ccc(C#CCN3CC[C@@H](C)C3)cc2)Oc2ccc(O)cc21 (stereo partly shown) [Compound 24] | 62.5%
CC1=C(c2cccc(O)c2)C(c2ccc(C#CCN3CCCCC3)cc2)Oc2ccc(O)cc21 (stereo not shown) [Compound 25, 3-(3-hydroxyphenyl)-4-methyl-2-[4-(3-piperidin-1-yl-prop-1-ynyl)phenyl]-2H-chromen-6-ol] | 42.5%
CC1=C(c2cccc(O)c2)C(c2ccc(C#CCN3CCN(C)CC3)cc2)Oc2ccc(O)cc21 (stereo not shown) [Compound 26] | 55.2%
CC1=C(c2cccc(O)c2)C(c2ccc(C#CCCN3CCN(C)CC3)cc2)Oc2ccc(O)cc21 (stereo not shown) [Compound 27] | 28.8%
CCCNC1CCN(C)C1 (stereo not shown) [Compound 31] | 19.9%
CC1=C(c2cccc(O)c2)C(c2ccc(/C=C/CN3CCSCC3)cc2)Oc2ccc(O)cc21 (stereo not shown) [Compound 33] | 22.8%
CC1=C(c2cccc(O)c2)C(c2ccc(/C=C\CN3CCC(C)CC3)cc2)Oc2ccc(O)cc21 (stereo not shown) [Compound 34] | 35%
CCCCCCCCCNC/C=C/c1ccc(C2Oc3ccc(O)cc3C(C)=C2c2cccc(O)c2)cc1 (stereo not shown) [Compound 35] | 68.6%
CC1=C(c2cccc(O)c2)C(c2ccc(/C=C\CNCCCCCCCCCF)cc2)Oc2ccc(O)cc21 (stereo not shown) [Compound 38] | 49.9%
CC1=C(c2cccc(O)c2)C(c2ccc(/C=C/CNCCCCCCCCCF)cc2)Oc2ccc(O)cc21 (stereo not shown) [Compound 39, 2-{4-[(E)-3-(9-Fluorononylamino)propenyl]phenyl}-3-(3-hydroxyphenyl)-4-methyl-2H-chromen-6-ol] | 89.7%
CC1=C(c2cccc(O)c2)C(c2ccc(/C=C\C(C)N3CCCC3)cc2)Oc2ccc(O)cc21 (stereo not shown) [Compound 40] | 29.3%
CC1=C(c2cccc(O)c2)C(c2ccc(/C=C/CNCCCCCCCCCCF)cc2)Oc2ccc(O)cc21 (stereo not shown) [Compound 41] | 77.6%
CC1=C(c2cccc(O)c2)C(c2ccc(C#CCNCCCCCCCCCF)cc2)Oc2ccc(O)cc21 (stereo not shown) [Compound 42] | 62%
CC1=C(c2cccc(O)c2)C(c2ccc(/C=C\CNCCCCCCCCCCF)cc2)Oc2ccc(O)cc21 (stereo not shown) [Compound 43] | 47.9%
CC1=C(c2cccc(O)c2)C(c2ccc(/C=C/CNCCCCCCCCC(F)F)cc2)Oc2ccc(O)cc21 (stereo not shown) [Compound 44] | 67.2%
CC1=C(c2cccc(O)c2)C(c2ccc(/C=C\CNCCCCCCCCC(F)F)cc2)Oc2ccc(O)cc21 (stereo not shown) [Compound 46] | 88.6%
COc1cccc(C2=C(C)c3cc(O)ccc3OC2c2ccc(/C=C/CNCCCCCCCCCF)cc2)c1 (stereo not shown) [Compound 47] | 67.4%

Compound | inhibition at 1 µM
CC1=C(c2cccc(O)c2)C(c2ccc(/C=C\CN(C)CCCCCCCCCF)cc2)Oc2ccc(O)cc21 (stereo not shown) [Compound 48] | 58.9%
CC1=C(c2cccc(O)c2)C(c2ccc(/C=C/CNCCCCCCCCF)cc2)Oc2ccc(O)cc21 (stereo not shown) [Compound 49] | 67.3%
CC1=C(c2cccc(O)c2)C(c2ccc(/C=C\CNCCCCCCCCF)cc2)Oc2ccc(O)cc21 (stereo not shown) [Compound 50] | 57.3%
CC1=C(c2cccc(O)c2)C(c2ccc(C#CCNCCCCCCCCF)cc2)Oc2ccc(O)cc21 (stereo not shown) [Compound 51] | 61.1%
CC1=C(c2cccc(O)c2)C(c2ccc(C#CCNCCCCCCCCCCF)cc2)Oc2ccc(O)cc21 (stereo not shown) [Compound 52] | 74.3%
CC1=C(c2cccc(O)c2)C(c2ccc(C#CCN(C)CCCCCCCCCF)cc2)Oc2ccc(O)cc21 (stereo not shown) [Compound 53] | 38.6%
CC1=C(c2cccc(O)c2)C(c2ccc(C#CCNCCCCCCCCC(F)F)cc2)Oc2ccc(O)cc21 (stereo not shown) [Compound 54] | 67.5%
CC1=C(c2cccc(O)c2)C(c2ccc(C#CCN3CCC(F)(F)C3)cc2)Oc2ccc(O)cc21 (stereo not shown) [Compound 56] | 44.9%
CC1=C(c2cccc(O)c2)C(c2ccc(/C=C\CN3CCC(F)(F)C3)cc2)Oc2ccc(O)cc21 (stereo not shown) [Compound 57] | 24.3%
CC1=C(c2cccc(O)c2)C(c2ccc(/C=C/CN3CCC(F)(F)C3)cc2)Oc2ccc(O)cc21 (stereo not shown) [Compound 58] | 37.9%
CC1=C(c2cccc(O)c2)C(c2ccc(/C=C/CN3CC[C@@H](CF)C3)cc2)Oc2ccc(O)cc21 (stereo partly shown) [Compound 59] | 73.5%
CC1=C(c2cccc(O)c2)C(c2ccc(/C=C/CN3CC[C@@H](CO)C3)cc2)Oc2ccc(O)cc21 (stereo partly shown) [Compound 60] | 55%
CC1=C(c2cccc(O)c2)C(c2ccc(C#CCNCCCCOCCCCF)cc2)Oc2ccc(O)cc21 (stereo not shown) [Compound 61] | 39.3%
CC1=C(c2cccc(O)c2)C(c2ccc(/C=C\CNCCCCOCCCCF)cc2)Oc2ccc(O)cc21 (stereo not shown) [Compound 62] | 53.1%
CC1=C(c2cccc(O)c2)C(c2ccc(/C=C/CNCCCCOCCCCF)cc2)Oc2ccc(O)cc21 (stereo not shown) [Compound 63] | 41.8%
CC1=C(c2cccc(O)c2)C(c2ccc(C#CCN3CC[C@@H](CF)C3)cc2)Oc2ccc(O)cc21 (stereo partly shown) [Compound 64] | 47.2%
CC1=C(c2cccc(O)c2)C(c2ccc(/C=C/CN3CCC(C(F)(F)F)C3)cc2)Oc2ccc(O)cc21 (stereo not shown) [Compound 65] | 55.4%
CC1=C(c2cccc(O)c2)C(c2ccc(/C=C\CN3CCC(C(F)(F)F)C3)cc2)Oc2ccc(O)cc21 (stereo not shown) [Compound 66] | 12.9%

Same assay, conditions: at 1 μM; MCF-7 cells plated in presence of estradiol (1 nM), five days incubation, Presto Blue viability

Compound | % inhibition
3-(3-Methoxy phenyl)-4-methyl-2-{4-[(Z)-3-((R)-3-methyl pyrrolidin-1-yl)propenyl]phenyl}-2H-chromen-6-ol [Compound 28] | 55.9%
CCCNC1CCN(C)C1 (stereo not shown) [Compound 32] | 27.4%
CCCCCCCCCNC/C=C\c1ccc(C2Oc3ccc(O)cc3C(C)=C2c2cccc(O)c2)cc1 (stereo not shown) [Compound 37] | 57.2%
CC1=C(c2cccc(O)c2)C(c2ccc(/C=C/CN(C)CCCCCCCCCF)cc2)Oc2ccc(O)cc21 (stereo not shown) [Compound 45] | 71.4%
CC1=C(c2cccc(O)c2)C(c2ccc(/C=C\CN3CC[C@@H](CF)C3)cc2)Oc2ccc(O)cc21 (stereo partly shown) [Compound 55] | 67.1%
